In patent US10626081B2, “Farnesoid X receptor agonists and uses thereof” (Metacrine, Inc., priority 2015, dated 2020):

target: T1, FXR (Homo sapiens, UniProt Q96RI1); assay: In Vitro FXR Assay (TK): TK-ECRE-luc reporter in transfected CV-1 cells; format: cell-based; settings: CV-1 cells transfected with hFXR, hRXR, 18 h incubation, luminescence
T1 construct: expressed in transfected cells; host or cells: CV-1 cells
T1 sequence (Q96RI1 1-486): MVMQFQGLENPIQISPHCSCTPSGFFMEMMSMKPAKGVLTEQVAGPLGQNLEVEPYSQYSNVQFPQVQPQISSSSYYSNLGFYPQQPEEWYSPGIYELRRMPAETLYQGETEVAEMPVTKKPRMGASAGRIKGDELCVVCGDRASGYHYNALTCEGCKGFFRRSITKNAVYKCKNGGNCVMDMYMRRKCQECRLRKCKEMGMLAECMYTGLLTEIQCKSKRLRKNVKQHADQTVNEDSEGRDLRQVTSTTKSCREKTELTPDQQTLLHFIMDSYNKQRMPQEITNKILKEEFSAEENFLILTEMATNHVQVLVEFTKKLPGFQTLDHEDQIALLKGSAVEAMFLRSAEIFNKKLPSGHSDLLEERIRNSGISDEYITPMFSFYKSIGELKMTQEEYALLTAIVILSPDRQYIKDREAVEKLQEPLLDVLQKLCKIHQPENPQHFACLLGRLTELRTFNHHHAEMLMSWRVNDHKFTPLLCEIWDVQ
T1 sequence (P19793 1-462 partner): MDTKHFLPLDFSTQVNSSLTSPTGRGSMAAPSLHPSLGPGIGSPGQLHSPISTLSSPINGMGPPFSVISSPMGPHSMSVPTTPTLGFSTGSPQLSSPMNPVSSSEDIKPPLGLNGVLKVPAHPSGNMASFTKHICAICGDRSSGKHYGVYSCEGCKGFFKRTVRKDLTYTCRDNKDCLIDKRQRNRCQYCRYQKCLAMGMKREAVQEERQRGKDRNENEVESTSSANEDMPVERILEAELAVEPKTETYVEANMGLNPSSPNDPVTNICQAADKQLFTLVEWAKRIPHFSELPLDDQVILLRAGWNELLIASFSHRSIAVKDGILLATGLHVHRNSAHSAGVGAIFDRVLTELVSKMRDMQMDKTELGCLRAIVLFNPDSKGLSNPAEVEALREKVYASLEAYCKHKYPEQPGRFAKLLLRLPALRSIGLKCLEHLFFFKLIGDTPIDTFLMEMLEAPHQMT
Method: Example B-2: In Vitro FXR Assay (TK)
CV-1 cells were seeded at a density of 2,000,000 cells in a T175 flask with DMEM+10% charcoal double-stripped FBS and incubated at 37° C. in 5% CO2 for 18 h (O/N).
After 18 h of incubation, the medium in the T175 flask was changed with fresh DMEM+10% charcoal super-stripped serum. In a polypropylene tube, 2500 μL OptiMEM (Life Technologies, Cat #31985-062) was combined with expression plasmids for hFXR, hRXR, TK-ECRE-luc and pCMX-YFP. The tube was then briefly vortexed and incubated at room temperature for 5 minutes. Transfection reagent (X-tremeGENE HP from Roche, Cat #06 366 236 001) was added to the OptiMEM/plasmid mixture vortexed and incubated at room temperature for 20 minutes. Following incubation, the transfection reagent/DNA mixture complex was added to cells in the T175 flask and the cells were incubated at 37° C. in 5% CO2 for 18 h (O/N).
Compounds were serially diluted in DMSO and added to transfected CV-1 cells. The cells were then incubated for 18 hrs. The next day cells were lysed and examined for luminescence.

| EC50 | SMILES |
| --- | --- |
| 1000 to 10000 nM | COC(=O)/C=C/c1cccc(N(Cc2ccc(-c3ccc(N(C)C)cc3)cc2)C(=O)C2CC[S+]([O-])CC2)c1 (stereo not shown) [13.19, (E)-Methyl 3-(3-(N-((4′-(dimethylamino)-[1,1′-biphenyl]-4-yl)methyl)-1-oxidotetrahydro-2H-thiopyran-4-carboxamido)phenyl)acrylate] |
| 1000 to 10000 nM | COC(=O)/C=C/c1cccc(N(Cc2ccc(-c3ccc(N(C)C)cc3)cc2)C(=O)C2CCC([S+](C)[O-])CC2)c1 (stereo not shown) [13.20, (E)-Methyl 3-(3-(N-((4′-(dimethylamino)-[1,1′-biphenyl]-4-yl)methyl)-4-(methylsulfinyl)cyclohexanecarboxamido)phenyl)acrylate] |
| ≤ 1000 nM | COC(=O)/C=C/c1cccc(N(Cc2ccc(-c3ccc(N(C)C)cc3)cc2)C(=O)c2ccc(O)cc2)c1 [13.21, (E)-Methyl 3-(3-(N-((4′-(dimethylamino)-[1,1′-biphenyl]-4-yl)methyl)-4-hydroxybenzamido)phenyl)acrylate] |
| ≤ 1000 nM | COC(=O)/C=C/c1cccc(N(Cc2ccc(-c3ccc(N(C)C)cc3)cc2)C(=O)c2ccc(OCCO)cc2)c1 [13.22, (E)-Methyl 3-(3-(N-((4′-(dimethylamino)-[1,1′-biphenyl]-4-yl)methyl)-4-(2-hydroxyethoxy)benzamido)phenyl)acrylate] |
| 1000 to 10000 nM | COC(=O)/C=C/c1cccc(N(Cc2ccc(-c3ccc(N(C)C)cc3)cc2)C(=O)C(C)(C)CO)c1 [13.23, (E)-Methyl 3-(3-(N-((4′-(dimethylamino)-[1,1′-biphenyl]-4-yl)methyl)-3-hydroxy-2,2-dimethylpropanamido)phenyl)acrylate] |
| ≤ 1000 nM | COC(=O)/C=C/c1cccc(N(Cc2ccc(-c3ccc(N(C)C)cc3)cc2)C(=O)C(C)(C)CCl)c1 [13.24, (E)-Methyl 3-(3-(3-chloro-N-((4′-(dimethylamino)-[1,1′-biphenyl]-4-yl)methyl)-2,2-dimethylpropanamido)phenyl)acrylate] |
| ≤ 1000 nM | COC(=O)/C=C/c1cccc(N(Cc2ccc(-c3ccc(N(C)C)cc3)cc2)C(=O)C2CCCCO2)c1 (stereo not shown) [17.1, (E)-Methyl 3-(3-(N-((4′-(dimethylamino)-[1,1′-biphenyl]-4-yl)methyl)tetrahydro-2H-pyran-2-carboxamido)phenyl)acrylate] |
| 1000 to 10000 nM | COC(=O)/C=C/c1cccc(N(Cc2ccc(-c3ccc(N(C)C)cc3)cc2)C(=O)C2COCCO2)c1 (stereo not shown) [17.2, (E)-Methyl 3-(3-(N-((4′-(dimethylamino)-[1,1′-biphenyl]-4-yl)methyl)-1,4-dioxane-2-carboxamido)phenyl)acrylate] |
| 1000 to 10000 nM | COC(=O)/C=C/c1cccc(N(Cc2ccc(-c3ccc(N(C)C)cc3)cc2)C(=O)C2CCCOC2)c1 (stereo not shown) [17.3, (E)-Methyl 3-(3-(N-((4′-(dimethylamino)-[1,1′-biphenyl]-4-yl)methyl)tetrahydro-2H-pyran-3-carboxamido)phenyl)acrylate] |
| 1000 to 10000 nM | COC(=O)/C=C/c1cccc(N(Cc2ccc(-c3ccc(OC)c(C)c3)cc2)C(=O)c2ccncc2)c1 [62.1, (E)-Methyl 3-(3-(N-((4′-methoxy-3′-methyl-[1,1′-biphenyl]-4-yl)methyl)isonicotinamido)phenyl)acrylate] |
| 1000 to 10000 nM | COC(=O)/C=C/c1cccc(N(Cc2ccc(-c3cccc(C(=O)OC)c3)cc2)C(=O)C2CCCCC2)c1 [62.2, (E)-Methyl 4′-((N-(3-(3-methoxy-3-oxoprop-1-en-1-yl)phenyl)cyclohexanecarboxamido)methyl)-[1,1′-biphenyl]-3-carboxylate] |
| 1000 to 10000 nM | COC(=O)/C=C/c1cccc(N(Cc2ccc(-c3ccc(C(=O)OC)cc3)cc2)C(=O)C2CCCCC2)c1 [62.3, (E)-Methyl 4′-((N-(3-(3-methoxy-3-oxoprop-1-en-1-yl)phenyl)cyclohexanecarboxamido)methyl)-[1,1′-biphenyl]-4-carboxylate] |
| 1000 to 10000 nM | COC(=O)/C=C/c1cccc(N(Cc2ccc(-c3ccc(S(C)(=O)=O)cc3)cc2)C(=O)C2CCCCC2)c1 [62.4, (E)-Methyl 3-(3-(N-((4′-(methylsulfonyl)-[1,1′-biphenyl]-4-yl)methyl)cyclohexanecarboxamido)phenyl) acrylate] |
| 1000 to 10000 nM | COC(=O)/C=C/c1cccc(N(Cc2ccc(-c3ccc(OC)c(C)c3)cc2)C(=O)C2CCN(C(=O)OC(C)(C)C)CC2)c1 [62.5, (E)-tert-Butyl 4-(((4′-methoxy-3′-methyl-[1,1′-biphenyl]-4-yl)methyl)(3-(3-methoxy-3-oxoprop-1-en-1-yl)phenyl)carbamoyl)piperidine-1-carboxylate] |
| 1000 to 10000 nM | COC(=O)/C=C/c1cccc(N(Cc2ccc(-c3cccc(CO)c3)cc2)C(=O)C2CCCCC2)c1 [62.6, (E)-Methyl 3-(3-(N-((3′-(hydroxymethyl)-[1,1′-biphenyl]-4-yl)methyl)cyclohexanecarboxamido)phenyl) acrylate] |
| > 10000 nM | COC(=O)/C=C/c1cccc(N(Cc2ccc(-c3ccc(CO)cc3)cc2)C(=O)C2CCCCC2)c1 [62.7, (E)-Methyl 3-(3-(N-((4′-(hydroxymethyl)-[1,1′-biphenyl]-4-yl)methyl)cyclohexanecarboxamido)phenyl) acrylate] |
| > 10000 nM | COC(=O)/C=C/c1cccc(N(Cc2ccc(-c3cccc(S(C)(=O)=O)c3)cc2)C(=O)C2CCCCC2)c1 [62.8, (E)-Methyl 3-(3-(N-((3′-(methylsulfonyl)-[1,1′-biphenyl]-4-yl)methyl)cyclohexanecarboxamido)phenyl) acrylate] |
| ≤ 1000 nM | COC(=O)/C=C/c1cccc(N(Cc2ccc(-c3ccc4c(c3)OCO4)cc2)C(=O)C2CCCCC2)c1 [62.9, (E)-Methyl 3-(3-(N-(4-(benzo[d][1,3]dioxol-5-yl)benzyl)cyclohexanecarboxamido)phenyl) acrylate] |
| ≤ 1000 nM | COC(=O)/C=C/c1cccc(N(Cc2ccc(-c3ccc(OC)c(Cl)c3)cc2)C(=O)C2CCCCC2)c1 [62.10, (E)-Methyl 3-(3-(N-((3′-chloro-4′-methoxy-[1,1′-biphenyl]-4-yl)methyl)cyclohexanecarboxamido)phenyl) acrylate] |
| ≤ 1000 nM | COC(=O)/C=C/c1cccc(N(Cc2ccc(-c3ccc(N(C)C)cc3)c(C#N)c2)C(=O)C2CCCCC2)c1 [62.11, (E)-Methyl 3-(3-(N-((2-cyano-4′-(dimethylamino)-[1,1′-biphenyl]-4-yl)methyl)cyclohexanecarboxamido)phenyl) acrylate] |
| 1000 to 10000 nM | COC(=O)/C=C/c1cccc(N(Cc2ccc(-c3ccc(N(C)C)cc3)cc2C#N)C(=O)C2CCCCC2)c1 [62.12, (E)-Methyl 3-(3-(N-((3-cyano-4′-(dimethylamino)-[1,1′-biphenyl]-4-yl)methyl)cyclohexanecarboxamido)phenyl) acrylate] |
| 1000 to 10000 nM | CCc1cc(CN(C(=O)C2CCCCC2)c2cccc(/C=C/C(=O)OC)c2)ccc1-c1ccc(N(C)C)cc1 [62.13, (E)-Methyl 3-(3-(N-((4′-(dimethylamino)-2-ethyl-[1,1′-biphenyl]-4-yl)methyl)cyclohexanecarboxamido)phenyl) acrylate] |
| ≤ 1000 nM | CCc1cc(-c2ccc(N(C)C)cc2)ccc1CN(C(=O)C1CCCCC1)c1cccc(/C=C/C(=O)OC)c1 [62.14, (E)-Methyl 3-(3-(N-((4′-(dimethylamino)-3-ethyl-[1,1′-biphenyl]-4-yl)methyl)cyclohexanecarboxamido)phenyl) acrylate] |
| > 10000 nM | COC(=O)/C=C/c1cccc(N(Cc2ccc(-c3ccc(OC)c(C)c3)cc2)C(=O)C2CCNCC2)c1 [62.15, (E)-Methyl 3-(3-(N-((4′-methoxy-3′-methyl-[1,1′-biphenyl]-4-yl)methyl)piperidine-4-carboxamido)phenyl)acrylate] |
| 1000 to 10000 nM | COC(=O)/C=C/c1cccc(N(Cc2ccc(-c3ccc(OC)c(C)c3)cc2)C(=O)C2CCN(C(C)=O)CC2)c1 [62.16, (E)-Methyl 3-(3-(1-acetyl-N-((4′-methoxy-3′-methyl-[1,1′-biphenyl]-4-yl)methyl)piperidine-4-carboxamido)phenyl)acrylate] |
